Reference: patent US9951271B2, “Process for making an asymmetric fluorophore” (UNITED STATES OF AMERICA, AS REPRESENTED BY THE SECRETARY …, priority 2015, dated 2018)

Tests used:
NIH 3T3 cells [1] = assay: Basal cytotoxicity MTS assay (cell viability); type: cell-based; conditions: concentrations below 10 μM, 72-hour incubation, FIG. 6
Protocol: On day one, 5,000 cells per well were plated on a clear 96-well plate (Corning Costar, TC-treated) along with several blank wells with media only. The next day, the media was replaced with 180 μL of DPBS with glucose and 20 μL of 4 (final concentrations from 30 μM to 1 nM were tested, final DMSO concentration=0.1%) and incubated for 30 minutes. The dye solution was removed from the wells and 200 μL of fresh media was added to each well in the plate. The plate was then incubated (37° C., 5% CO2) for 72 hours. Then 40 μL of MTS (Promega, CellTiter 96® AQueous One Solution Cell Proliferation Assay) was added to each well and the plate was incubated (37° C., 5% CO2) for 4 hours. The absorbance of each well at 540 nm was measured on a Synergy HT plate reader (BioTek Instruments, Inc.). All assays were performed in triplicate on three separate plates.

[2] = Aqueous solubility of the fluorophore; type: physicochemical; conditions: pH independent, diluted to 0.1% DMSO from 100 mM DMSO stock
Protocol: The resulting fluorophore (6) was soluble in aqueous solutions (pH independent) up to […] and was diluted down to 0.1% DMSO from a 100 mM, 100% DMSO stock solution. […] Compound (6) has a sharp fluorescence peak and high quantum yield.

NIH 3T3 cells [3] = assay: Live cell imaging (whole-cell staining); type: cell-based; conditions: live NIH 3T3 cells; for staining pattern compared under same conditions and concentrations: 100 nM, FIG. 3
Protocol: (§1) NIH 3T3 cell line was obtained from ATCC (Manassas, Va.) and cultured routinely using sterile technique. Cell culture media consisted of DMEM supplemented with 10% FBS and 4 mM GlutaMax (Life Technologies). Both live and fixed cell automated microscopy was performed on a Zeiss AxioObserver Z1 (Carl Zeiss MicroImaging Inc., Jena, Germany) with an EC Plan-Neofluar 10×/0.30 Ph 1 objective (Carl Zeiss, Jena, Germany), and a Coolsnap HQ2 camera (Photometrics, Tucson, Ariz.). All fluorescent microscopy images were collected using a HE38 filter set (Carl Zeiss, Jena, Germany), a Colibri.2 LED light source at 100% intensity, and an exposure time of either 200 ms or 1 second. Performance benchmarking of the fluorescence microscope was performed daily. All imaging was done on the same day on the same microscope to decrease variations in image intensities. ImageJ (National Institutes of Health, Bethesda, Md.) was used to create figures and to determine the mean fluorescence intensity of cells.
One day prior to imaging, NIH 3T3 cells were seeded at 10,000 cells per well in a 24-well plate (Corning Costar, TC-treated). After 24 hours of incubation (37° C., 5% CO2), the media was removed from the plate and cells were washed once with DPBS (Ca and Mg free, Life Sciences). A total of 320 μL of DPBS with glucose was added to each well, and then 40 μL of Hoechst 33342 (final concentration of 0.5 μg/mL) and 40 μL of 4 (final concentrations from 10 μM to 1 nM were tested, final DMSO concentration=0.1%) or CFSE (final concentrations from 10 μM to 1 nM were tested, final DMSO concentration=0.1%). […] Using ImageJ (National Institutes of Health, Bethesda, Md.) individual cell fluorescence intensities were measured by first segmenting the 8-bit tiff image for the 6/CFSE/FNHS channel by manually finding the minimum intensity below which object boundaries began to expand into the background (the built-in watershed algorithm was also utilized to separate touching objects). Using a histogram of object sizes, the minimal object area was chosen and pixel intensity for each of those objects were recorded. […]

[4] = Photophysical characterization (UV-Vis, fluorescence emission, relative quantum yield); type: physicochemical
Protocol: The UV-Vis and fluorescence emission spectra were recorded on a Synergy HT (BioTek Instruments, Inc.) multi-detection microplate reader equipped with a 10 W Xe flash light source for absorbance and a 20 W tungsten quartz halogen source for fluorescence. Relative quantum yields were determined using rhodamine 6G in ddH2O as a reference while keeping instrument temperature and parameters constant. Serial dilutions of the asymmetric fluorophore (6) were made from a methanol stock; therefore, all dilutions of asymmetric fluorophore (6) were kept at 10% MeOH in water. All fluorescent spectra were intensity corrected using NIST SRM 2941 (excitation wavelength at 427 nm, scan emission monochromator from 450 nm to 650 nm using a 1 nm increment).

NIH 3T3 cells [5] = assay: Fixed cell imaging (whole-cell staining); type: cell-based; conditions: fixed NIH 3T3 cells, 1 μM
Protocol: as §1, with “All imaging was done on the same day on the same microscope to decrease variations in image intensities.” left out
One day prior to imaging, NIH 3T3 cells were seeded at 20,000 cells per well in a 24-well plate (Corning Costar, TC-treated). […] Using ImageJ (National Institutes of Health, Bethesda, Md.) individual cell fluorescence intensities were measured by first segmenting the 8-bit tiff image for the 4/CFSE/FNHS channel by manually finding the minimum intensity below which object boundaries began to expand into the background (the built-in watershed algorithm was also utilized to separate touching objects). […]

Row | soluble in aqueous solutions [2] | emission ([4]; 10% aqueous methanol, FIG. 1) | maximum excitation ([4]; 10% aqueous methanol, FIG. 1) | relative quantum yield ([4]; 10% aqueous methanol, reference rhodamine 6G in ddH2O) | maximum absorption ([4]; water (10% MeOH), FIG. 1 legend) | maximum excitation (excited at 500 nm) ([4]; water (10% MeOH), excited at 500 nm, FIG. 1 legend) | Compound | change in cell viability (NIH 3T3 cells [1]) | staining pattern compared under same conditions and concentrations (NIH 3T3 cells [3]) | staining of live cells (membrane crossing, localisation) (NIH 3T3 cells [3]; 30 minutes of staining, 1 μM, FIG. 2) | fluorescence intensity relative to FNHS (quantitative image analysis) (NIH 3T3 cells [5]; FIG. 4) | brightness by visual appearance versus FNHS (NIH 3T3 cells [5]; same conditions, FIG. 5)
1 | up to 1 μM | 516 nm | 502 nm | 0.84 | 502 nm | 516 nm | CC1=C(CCC(=O)ON2C(=O)CCC2=O)C(C)=[N+]2C1=Cc1cccn1[B-]2(F)F [Compound 6, 4,4-difluoro-1,3-dimethyl-4-bora-3a,4a-diaza-s-indacene-2-propionic acid N-hydroxysuccinimide ester] | no significant change in cell viability | less diffuse staining | crossed the cell membrane and stained the cytoplasmic regions with some nuclear staining | three fold brighter than FNHS | appeared brighter than FNHS
2 | – | – | – | – | – | – | carboxyfluorescein succinimidyl ester [CFSE, reference compound] | – | more diffuse staining pattern | – | – | –
